Results on 20 compounds are retold here after patent US11560372B2, “Heterocyclic compounds useful as modulators of acetylcholine receptors” (TAKEDA PHARMACEUTICAL COMPANY LIMITED, priority 2017, dated 2023).

The series addresses T1, MDR1 (Homo sapiens, UniProt P08183).
T1 construct: expressed in transfected cells
In words: MDR1 membrane permeability test. It counts as in vitro ADME. The conditions noted are these: pH 7.4, efflux ratio (ER), Papp B to A / A to B, human MDR1-expressing LLC-PK1 cells, read-out: MDR1 substrate screening 1 μM (MDRSUB1)/Ratio (NUMBER). The protocol:
MDR1 Membrane Permeability Test
When MDR1 is expressed in excess in LLC-PK1 cell, which is a polar cell, MDR1 is localized in apical membrane (A), thus promoting transcellular transport from the basement membrane side (B) toward direction A. When a ratio to the transcellular transport in the opposite direction is taken and a ratio to a control cell in which a mock vector has been introduced is further taken, an efflux ratio of MDR1 to simple diffusion (corrected efflux ratio) is calculated. Similarly, when a brain/plasma concentration ratio in Mdr1(−/−) mouse is divided by a brain/plasma concentration ratio in wild-type mouse, an efflux ratio of Mdr1 to simple diffusion in BBB (Kp, brain ratio, higher value means lower central nervous system permeability) is calculated. Adachi Y. et al. (Reference 1) has reported a positive correlation between corrected efflux ratio and Kp, brain ratio (FIG. 5(C)), and efflux ratio in MDR1 expressing cell and Kp, brain ratio (FIG. 5(B)).
To confirm the central nervous system permeability of the compounds of the present invention, a MDR1 membrane permeability test was performed by the following method.
Human MDR1-expressing LLC-PK1 cells were cultured according to the report of Takeuchi et al. (Reference 2). Human MDR1-expressing LLC-PK1 cells were cultured in 10% fetal bovine serum (Invitrogen), 500 μg/ml G418 (Invitrogen), 150 ng/ml colchicine-containing M199 medium (Invitrogen) under 5% CO2 conditions at 37° C.
Transcellular transport was performed according to the report of Sugimoto et al. (Reference 3). The cells were cultured for 3 days on HTS Transwell (registered trademark) 96 well permeable support (pore size 0.4 μm, 0.143 cm^2 surface area, Corning Life Sciences) having polyethylene terephthalate membrane on which the cells had been seeded at 3.45×10^4 cells/well. After preincubation in M199 medium (containing 10 mmol/L HEPES, 1% BSA, pH 7.4) for 30 min, a drug solution (10 μmol/L digoxin, 200 μmol/L LY, […]) dissolved in M199 medium was added to the apical side or basolateral side of the Transwell by 75 or 250 μL each and the cells were cultured under 5% CO2 conditions at 37° C. After 1 hr, the sample was collected from the side opposite to the side where the drug solution was added, and the concentration of the test compound was measured by LC-MS/MS. As an internal standard substance, 100 ng/mL alprenolol and diclofenac were used. The analysis conditions were as follows.
Papp, A to B and Papp, B to A (apparent permeability) were calculated from the formula (1), and the efflux ratio (ER) was calculated from the formula (2).

T1 sequence (P08183 whole entry): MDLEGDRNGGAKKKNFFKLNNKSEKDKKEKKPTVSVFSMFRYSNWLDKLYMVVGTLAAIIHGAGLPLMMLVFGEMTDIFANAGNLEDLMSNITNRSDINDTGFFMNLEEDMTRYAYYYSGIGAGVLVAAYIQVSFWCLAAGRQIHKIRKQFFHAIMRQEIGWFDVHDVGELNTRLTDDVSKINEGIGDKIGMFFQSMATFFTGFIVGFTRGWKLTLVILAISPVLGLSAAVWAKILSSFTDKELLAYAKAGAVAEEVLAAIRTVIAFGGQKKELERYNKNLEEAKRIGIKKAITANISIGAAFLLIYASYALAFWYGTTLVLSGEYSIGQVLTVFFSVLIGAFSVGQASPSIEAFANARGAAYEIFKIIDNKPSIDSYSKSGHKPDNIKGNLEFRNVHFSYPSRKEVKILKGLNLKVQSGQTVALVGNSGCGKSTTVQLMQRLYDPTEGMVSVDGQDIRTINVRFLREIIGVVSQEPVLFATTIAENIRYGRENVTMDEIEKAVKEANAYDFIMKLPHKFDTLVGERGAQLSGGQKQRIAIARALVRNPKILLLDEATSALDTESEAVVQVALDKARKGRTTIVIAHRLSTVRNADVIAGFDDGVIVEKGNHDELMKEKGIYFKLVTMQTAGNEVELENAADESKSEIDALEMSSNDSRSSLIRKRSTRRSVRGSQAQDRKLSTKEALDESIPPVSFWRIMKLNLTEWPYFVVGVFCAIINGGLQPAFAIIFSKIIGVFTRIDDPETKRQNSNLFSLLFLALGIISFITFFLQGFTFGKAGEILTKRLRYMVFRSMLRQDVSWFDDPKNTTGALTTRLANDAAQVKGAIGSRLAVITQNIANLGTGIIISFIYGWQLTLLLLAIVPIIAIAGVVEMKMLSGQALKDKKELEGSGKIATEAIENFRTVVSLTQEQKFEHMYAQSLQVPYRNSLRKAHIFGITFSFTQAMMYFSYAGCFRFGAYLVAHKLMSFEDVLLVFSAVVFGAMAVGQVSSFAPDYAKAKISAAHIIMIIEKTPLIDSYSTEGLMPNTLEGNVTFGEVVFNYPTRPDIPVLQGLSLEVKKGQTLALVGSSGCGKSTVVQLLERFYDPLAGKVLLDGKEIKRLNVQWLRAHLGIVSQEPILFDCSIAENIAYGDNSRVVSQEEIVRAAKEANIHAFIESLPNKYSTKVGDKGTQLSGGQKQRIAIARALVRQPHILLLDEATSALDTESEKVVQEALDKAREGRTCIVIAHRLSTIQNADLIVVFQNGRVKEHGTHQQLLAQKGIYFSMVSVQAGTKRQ

`COc1cc2ncn([C@H]3CCOC[C@@H]3O)c(=O)c2cc1Cc1ccc(-c2ccn(C)n2)nc1` [Example 63, 1,5-anhydro-2,3-dideoxy-3-(7-methoxy-6-((6-(1-methyl-1H-pyrazol-3-yl)pyridin-3-yl)methyl)-4-oxoquinazolin-3 (4H)-yl)-L-threo-pentitol]: the efflux ratio at 1 hr, 1 μM is 35. As to `CNC(=O)c1ccc(Cc2cc3c(=O)n([C@H]4CCOC[C@@H]4O)cnc3cc2OC)cc1F` [Example 57, 1,5-anhydro-2,3-dideoxy-3-(6-(3-fluoro-4-(methylcarbamoyl)benzyl)-7-methoxy-4-oxoquinazolin-3 (4H)-yl)-L-threo-pentitol], the efflux ratio at 1 hr, 1 μM came to 16. As for `Cc1c(Cc2ccc(-c3cn(C)nn3)cc2)cc2c(=O)n([C@H]3CCOC[C@@H]3O)nnc2c1Cl` [Example 20, 1,5-anhydro-3-(8-chloro-7-methyl-6-(4-(1-methyl-1H-1,2,3-triazol-4-yl)benzyl)-4-oxo-1,2,3-benzotriazin-3(4H)-yl)-2,3-dideoxy-L-threo-pentitol], the figure is 2.9; as for `Cc1c(Cc2ccc(-c3cn(C)nn3)cc2)cc2c(=O)n([C@H]3CCOC[C@@H]3O)cnc2c1F` [Example 22, 1,5-anhydro-2,3-dideoxy-3-(8-fluoro-7-methyl-6-(4-(1-methyl-1H-1,2,3-triazol-4-yl)benzyl)-4-oxoquinazolin-3(4H)-yl)-L-threo-pentitol], 12. Turning to `Cc1c(Cc2ccc(C(=O)NCCF)c(F)c2)cc2c(=O)n([C@H]3CCOC[C@@H]3O)cnc2c1C` [Example 67, 1,5-anhydro-2,3-dideoxy-3-(6-(3-fluoro-4-((2-fluoroethyl)carbamoyl)benzyl)-7,8-dimethyl-4-oxoquinazolin-3 (4H)-yl)-L-threo-pentitol], the efflux ratio at 1 hr, 1 μM was determined as 5.3. Take `Cc1c(Cc2ccc(C(=O)NCCN3CCCC3)c(F)c2)cc2c(=O)n([C@H]3CCOC[C@@H]3O)cnc2c1C` [Example 78, 1,5-anhydro-2,3-dideoxy-3-(6-(3-fluoro-4-((2-(pyrrolidin-1-yl)ethyl)carbamoyl)benzyl)-7,8-dimethyl-4-oxoquinazolin-3 (4H)-yl)-L-threo-pentitol]: the efflux ratio at 1 hr, 1 μM amounted to 56.

With `Cc1c(Cc2ccc(C(=O)NCC3CCCO3)cc2)cc2c(=O)n([C@H]3CCOC[C@@H]3O)cnc2c1C` (stereo partly drawn) [Example 45, 1,5-anhydro-2,3-dideoxy-3-(7,8-dimethyl-4-oxo-6-(4-((tetrahydrofuran-2-ylmethyl)carbamoyl)benzyl)quinazolin-3 (4H)-yl)-L-threo-pentitol], the efflux ratio at 1 hr, 1 μM was determined as 23. As to `Cc1c(Cc2ccc(-n3cccn3)cc2)cc2c(=O)n([C@H]3CCOC[C@@H]3O)nnc2c1C` [Comparative Example 2, 3-((3R,4S)-3-hydroxytetrahydro-2H-pyran-4-yl)-7,8-dimethyl-6-(4-(1H-pyrazol-1-yl)benzyl)-1,2,3-benzotriazin-4(3H)-one, reference compound], the efflux ratio at 1 hr, 1 μM was 1.3.

Consider `Cc1c(Cc2ccc(C(=O)NC(C)(C)CO)cc2)cc2c(=O)n([C@H]3CCOC[C@@H]3O)cnc2c1C` [Example 48, 1,5-anhydro-2,3-dideoxy-3-(6-(4-((1-hydroxy-2-methylpropan-2-yl)carbamoyl)benzyl)-7,8-dimethyl-4-oxoquinazolin-3 (4H)-yl)-L-threo-pentitol], for which the efflux ratio at 1 hr, 1 μM stood at 24.

Turning to `Cc1c(Cc2ccc(C(=O)NC3CC3)cc2)cc2c(=O)n([C@H]3CCOC[C@@H]3O)cnc2c1C` [Example 44, 1,5-anhydro-3-(6-(4-(cyclopropylcarbamoyl)benzyl)-7,8-dimethyl-4-oxoquinazolin-3 (4H)-yl)-2,3-dideoxy-L-threo pentitol], the efflux ratio at 1 hr, 1 μM amounted to 22. In the case of `Cc1c(Cc2ccc(C(=O)N3CC(C(F)F)C3)cc2)cc2c(=O)n([C@H]3CCOC[C@@H]3O)cnc2c1C` [Example 52, 1,5-anhydro-2,3-dideoxy-3-(6-(4-((3-(difluoromethyl)azetidin-1-yl)carbonyl)benzyl)-7,8-dimethyl-4-oxoquinazolin-3 (4H)-yl)-L-threo-pentitol], the efflux ratio at 1 hr, 1 μM was found to be 18.

On to `COCCCNC(=O)c1ccc(Cc2cc3c(=O)n([C@H]4CCOC[C@@H]4O)cnc3c(C)c2C)cc1` [Example 38, 1,5-anhydro-2,3-dideoxy-3-(6-(4-((3-methoxypropyl)carbamoyl)benzyl)-7,8-dimethyl-4-oxoquinazolin-3 (4H)-yl)-L-threo-pentitol], for which the efflux ratio at 1 hr, 1 μM is 15. Regarding `Cc1c(Cc2ccc(C(=O)NCCCF)cc2)cc2c(=O)n([C@H]3CCOC[C@@H]3O)cnc2c1C` [Example 34, 1,5-anhydro-2,3-dideoxy-3-(6-(4-((3-fluoropropyl)carbamoyl)benzyl)-7,8-dimethyl-4-oxoquinazolin-3 (4H)-yl)-L-threo-pentitol], the efflux ratio at 1 hr, 1 μM is 20. Regarding `Cc1c(Cc2ccc(C(=O)NC(C)C)cc2)cc2c(=O)n([C@H]3CCOC[C@@H]3O)cnc2c1C` [Example 36, 1,5-anhydro-2,3-dideoxy-3-(6-(4-(isopropylcarbamoyl)benzyl)-7,8-dimethyl-4-oxoquinazolin-3 (4H)-yl)-L-threo-pentitol], the efflux ratio at 1 hr, 1 μM came out at 11. With `Cc1c(Cc2ccc(-c3cn(C)nn3)nc2)cc2c(=O)n([C@H]3CCOC[C@@H]3O)cnc2c1Cl` [Example 14, 1,5-anhydro-3-(8-chloro-7-methyl-6-((6-(1-methyl-1H-1,2,3-triazol-4-yl)pyridin-3-yl)methyl)-4-oxoquinazolin-3(4H)-yl)-2,3-dideoxy-L-threo-pentitol], the efflux ratio at 1 hr, 1 μM stood at 22. For `CNC(=O)c1ccc(Cc2cc3c(=O)n([C@H]4CCOC[C@@H]4O)cnc3c(F)c2C)cc1F` [Example 21, 1,5-anhydro-2,3-dideoxy-3-(8-fluoro-6-(3-fluoro-4-(methylcarbamoyl)benzyl)-7-methyl-4-oxoquinazolin-3(4H)-yl)-L-threo-pentitol], the efflux ratio at 1 hr, 1 μM was found to be 20. With `Cc1c(Cc2ccc(C(=O)NCC3CCOCC3)cc2)cc2c(=O)n([C@H]3CCOC[C@@H]3O)cnc2c1C` [Example 51, 1,5-anhydro-2,3-dideoxy-3-(7,8-dimethyl-4-oxo-6-(4-((tetrahydro-2H-pyran-4-ylmethyl)carbamoyl)-benzyl)quinazolin-3 (4H)-yl)-L-threo-pentitol], the efflux ratio at 1 hr, 1 μM was found to be 27. As for `Cc1c(Cc2ccc(C(=O)NC3CC(F)C3)cc2)cc2c(=O)n([C@H]3CCOC[C@@H]3O)cnc2c1C` (stereo partly drawn) [Example 46, 1,5-anhydro-2,3-dideoxy-3-(6-(4-((3-fluorocyclobutyl)-carbamoyl)benzyl)-7,8-dimethyl-4-oxoquinazolin-3 (4H)-yl)-L-threo-pentitol], the figure is 18; as for `COc1cc2ncn([C@H]3CCOC[C@@H]3O)c(=O)c2cc1Cc1ccc(-c2cn(C)nn2)nc1` [Example 64, 1,5-anhydro-2,3-dideoxy-3-(7-methoxy-6-((6-(1-methyl-1H-1,2,3-triazol-4-yl)pyridin-3-yl)methyl)-4-oxoquinazolin-3 (4H)-yl)-L-threo-pentitol], 36; as for `Cc1c(Cc2ccc(C(=O)NC3CCOCC3)cc2)cc2c(=O)n([C@H]3CCOC[C@@H]3O)cnc2c1C` [Example 32, 1,5-anhydro-2,3-dideoxy-3-(7,8-dimethyl-4-oxo-6-(4-(tetrahydro-2H-pyran-4-ylcarbamoyl)benzyl)quinazolin-3 (4H)-yl)-L-threo-pentitol], 26.
